# Measured values: patent publication US6673749B1, “Use of phyllocladane diterpenoids for plant growth promotion and alleviation of growth retardant allelochemicals, and method therefor” (Council of Scientific and Industrial Research, priority 2002, dated 2004)
# Columns and labels:
# Format in all cases: in vivo
# [1] = system: Trigonella foenum-graecum; assay: Seed germination and seedling shoot/root growth test in petridishes; details: for Percent (%) germination of seeds in relation to control on 9th day after sowing / Percent (%) root growth of seedlings in relation to control on 9th day after sowing / Percent (%) shoot growth of seedlings in relation to control on 9th day after sowing: Trigonella foenum graecum, control = 100%
# Protocol: (§1) As noted above the activity of phyllocladane diterpenoids used in the practice of this invention was observed when these compounds were tested for their effects on seed germination, root and shoot growth of certain plant species and their antagonistic effect on plant growth retardants by the method described by Bagchi G. D. et al Phytochemistry, 45(6)1131-1133, 1997.
# (§2) Plant growth promoting activity of calliterpenone, calliterpenone monoacetate, and calliterpenone di-acetate was examined at 0.1, 0.01 and 0.001 μM concentrations. The tests were conducted against seeds of two monocotyledonous (Hordeum vulgare and Triticum aestivum) and two dicotyledonous plants (Vigna radiata and Trigonella foenum-graecum). Control seeds were germinated in distilled water and all the observations were compared with […]. The root and shoot growth of all the plant species were affected by the phyllocladane diterpenoids, although the extent of effect varied considerably in the plant species with the chemicals and their concentrations. […] Details of the procedure adopted and results obtained are discussed in the various examples.
# (§3) 100 ml stalk solutions of 0.1 μM concentration were prepared by dissolving required amounts of various test compounds (depending upon their molecular weights) in minimum amount of ethanol or acetone and adding distilled water. From this stalk solution, 0.01 μM and 0.001 μM concentrations were prepared. Calliterpenone and calliterpenone di acetate was dissolved in 2.0 ml absolute ethanol (Merc), while; calliterpenone monoacetate, isopropylideno calliterpenone and trihydroxy calliterpenone were dissolved in 2.0 ml spectral grade acetone (Ranbaxy). The respective control test solutions of distilled water of each concentration also contained equal amount of absolute ethanol or acetone. For an assay, 10 seeds were placed on Whatman filter paper (moistened with 5.0 ml of test solution in a 9.0 cm diameter petridish (in triplicate). The pteridishes were incubated for 9 days in a germinator, maintained at 25.0±1.0° C. with 90% humidity and 4 hr light/day. At the end of incubation, observations were recorded on the seedlings in terms of germination, shoot and root growth. The data on the length of shoot and root of seedlings and number of seeds germinated in different concentrations of compounds were compared with the control, which was taken as 100%. The data thus obtained were presented in Table-1.
# (§4) Root growth of seedlings was measured in the similar way as shoot growth from the experiment as described in Example 1.
# (§5) Effect of test compounds on germination was observed from the same experiment as described in Example 1.
# Vigna radiata = assay: as above; details: for Percent (%) germination of seeds in relation to control on 9th day after sowing / Percent (%) root growth of seedlings in relation to control on 9th day after sowing / Percent (%) shoot growth of seedlings in relation to control on 9th day after sowing: Vigna radiata, control = 100%
# Protocol: as §1, §2, §3, §4, §5
# Hordeum vulgare = assay: as above; details: control = 100%
# Protocol: as §1, §2, §3, §4, §5
# Triticum aestivum = assay: as above; details: control = 100%
# Protocol: as §1, §2, §3, §4, §5
# Sesbania cannabina = assay: Seed germination and seedling growth, comparison with GA3 (Example 4)
# Protocol: as §3
# (§6) Effect of calliterpenone and its derivatives on seed germination and seedling growth in Hibiscus sabdariffa and Sesbania cannabina were measured in the similar way as these were measured in Example-1.
# Hibiscus sabdariffa = assay: as above
# Protocol: as §3, §6
compound,measurement,setting,value
"C=C1C[C@]23C[C@@]1(O)CC[C@H]2[C@@]12C=C[C@H](O)[C@@](C)(C(=O)O1)[C@H]2[C@@H]3C(=O)O [GA3, Gibberellic acid, reference compound]",Percent (%) germination of seeds in relation to control on 9th day after sowing,[1]; 0.001 μM,100%
same,Percent (%) root growth of seedlings in relation to control on 9th day after sowing,[1]; 0.001 μM,123%
same,Percent (%) shoot growth of seedlings in relation to control on 9th day after sowing,[1]; 0.001 μM,116%
same,Percent (%) germination of seeds in relation to control on 9th day after sowing,[1]; 0.01 μM,100%
same,Percent (%) root growth of seedlings in relation to control on 9th day after sowing,[1]; 0.01 μM,45%
same,Percent (%) shoot growth of seedlings in relation to control on 9th day after sowing,[1]; 0.01 μM,112%
same,Percent (%) germination of seeds in relation to control on 9th day after sowing,[1]; 0.1 μM,100%
same,Percent (%) root growth of seedlings in relation to control on 9th day after sowing,[1]; 0.1 μM,45%
same,Percent (%) shoot growth of seedlings in relation to control on 9th day after sowing,[1]; 0.1 μM,93%
same,Seed germination as compared to 100% in control,"[1]; Trigonella foenum-graceum, concentration not specified",100%
same,Seed germination as compared to 100% in control,"Vigna radiata; V.radiata, concentration not specified",200%
same,Percent (%) germination of seeds in relation to control on 9th day after sowing,Vigna radiata; 0.001 μM,200%
same,Percent (%) root growth of seedlings in relation to control on 9th day after sowing,Vigna radiata; 0.001 μM,102%
same,Percent (%) shoot growth of seedlings in relation to control on 9th day after sowing,Vigna radiata; 0.001 μM,126%
same,Percent (%) germination of seeds in relation to control on 9th day after sowing,Vigna radiata; 0.01 μM,200%
same,Percent (%) root growth of seedlings in relation to control on 9th day after sowing,Vigna radiata; 0.01 μM,103%
same,Percent (%) shoot growth of seedlings in relation to control on 9th day after sowing,Vigna radiata; 0.01 μM,196%
same,Percent (%) germination of seeds in relation to control on 9th day after sowing,Vigna radiata; 0.1 μM,200%
same,Percent (%) root growth of seedlings in relation to control on 9th day after sowing,Vigna radiata; 0.1 μM,104%
same,Percent (%) shoot growth of seedlings in relation to control on 9th day after sowing,Vigna radiata; 0.1 μM,183%
same,Percent (%) germination of seeds in relation to control on 9th day after sowing,Hordeum vulgare; 0.001 μM,100%
same,Percent (%) root growth of seedlings in relation to control on 9th day after sowing,Hordeum vulgare; 0.001 μM,132%
same,Percent (%) shoot growth of seedlings in relation to control on 9th day after sowing,Hordeum vulgare; 0.001 μM,104%
same,Percent (%) germination of seeds in relation to control on 9th day after sowing,Hordeum vulgare; 0.01 μM,100%
same,Percent (%) root growth of seedlings in relation to control on 9th day after sowing,Hordeum vulgare; 0.01 μM,115%
same,Percent (%) shoot growth of seedlings in relation to control on 9th day after sowing,Hordeum vulgare; 0.01 μM,91%
same,Percent (%) germination of seeds in relation to control on 9th day after sowing,Hordeum vulgare; 0.1 μM,100%
same,Percent (%) root growth of seedlings in relation to control on 9th day after sowing,Hordeum vulgare; 0.1 μM,70%
same,Percent (%) shoot growth of seedlings in relation to control on 9th day after sowing,Hordeum vulgare; 0.1 μM,55%
same,Percent (%) germination of seeds in relation to control on 9th day after sowing,Triticum aestivum; 0.001 μM,100%
same,Percent (%) root growth of seedlings in relation to control on 9th day after sowing,Triticum aestivum; 0.001 μM,131%
same,Percent (%) shoot growth of seedlings in relation to control on 9th day after sowing,Triticum aestivum; 0.001 μM,120%
same,Percent (%) germination of seeds in relation to control on 9th day after sowing,Triticum aestivum; 0.01 μM,100%
same,Percent (%) root growth of seedlings in relation to control on 9th day after sowing,Triticum aestivum; 0.01 μM,116%
same,Percent (%) shoot growth of seedlings in relation to control on 9th day after sowing,Triticum aestivum; 0.01 μM,115%
same,Percent (%) germination of seeds in relation to control on 9th day after sowing,Triticum aestivum; 0.1 μM,100%
same,Percent (%) root growth of seedlings in relation to control on 9th day after sowing,Triticum aestivum; 0.1 μM,62%
same,Percent (%) shoot growth of seedlings in relation to control on 9th day after sowing,Triticum aestivum; 0.1 μM,113%
same,Seed Ger.,Sesbania cannabina; 0.001 μM,1
same,Root Growth (mm) 3rd Day,Sesbania cannabina; 0.001 μM,35.5 mm
same,Shoot growth 3rd Day,Sesbania cannabina; 0.001 μM,31.0
same,Root Growth (mm) 6th Day,Sesbania cannabina; 0.001 μM,34.0 mm
same,Shoot growth 6th Day,Sesbania cannabina; 0.001 μM,85.6
same,Root Growth (mm) 9th Day,Sesbania cannabina; 0.001 μM,40.0 mm
same,Shoot growth 9th Day,Sesbania cannabina; 0.001 μM,103.6
same,Seed Ger.,Sesbania cannabina; 0.01 μM,2
same,Root Growth (mm) 3rd Day,Sesbania cannabina; 0.01 μM,23.5 mm
same,Shoot growth 3rd Day,Sesbania cannabina; 0.01 μM,27.0
same,Root Growth (mm) 6th Day,Sesbania cannabina; 0.01 μM,25.5 mm
same,Shoot growth 6th Day,Sesbania cannabina; 0.01 μM,66.8
same,Root Growth (mm) 9th Day,Sesbania cannabina; 0.01 μM,27.8 mm
same,Shoot growth 9th Day,Sesbania cannabina; 0.01 μM,67.0
same,Seed Ger.,Sesbania cannabina; 0.1 μM,1
same,Root Growth (mm) 3rd Day,Sesbania cannabina; 0.1 μM,16.5 mm
same,Shoot growth 3rd Day,Sesbania cannabina; 0.1 μM,32.5
same,Root Growth (mm) 6th Day,Sesbania cannabina; 0.1 μM,16.6 mm
same,Shoot growth 6th Day,Sesbania cannabina; 0.1 μM,42.3
same,Root Growth (mm) 9th Day,Sesbania cannabina; 0.1 μM,26.6 mm
same,Shoot growth 9th Day,Sesbania cannabina; 0.1 μM,61.3
same,Seed Ger.,Hibiscus sabdariffa; 0.001 μM,3
same,Root Growth (mm) 3rd Day,Hibiscus sabdariffa; 0.001 μM,21.5 mm
same,Shoot growth 3rd Day,Hibiscus sabdariffa; 0.001 μM,47.6
same,Root Growth (mm) 6th Day,Hibiscus sabdariffa; 0.001 μM,22.8 mm
same,Shoot growth 6th Day,Hibiscus sabdariffa; 0.001 μM,76.3
same,Root Growth (mm) 9th Day,Hibiscus sabdariffa; 0.001 μM,25.0 mm
same,Shoot growth 9th Day,Hibiscus sabdariffa; 0.001 μM,85.8
same,Seed Ger.,Hibiscus sabdariffa; 0.01 μM,3
same,Root Growth (mm) 3rd Day,Hibiscus sabdariffa; 0.01 μM,15.8 mm
same,Shoot growth 3rd Day,Hibiscus sabdariffa; 0.01 μM,39.6
same,Root Growth (mm) 6th Day,Hibiscus sabdariffa; 0.01 μM,16.6 mm
same,Shoot growth 6th Day,Hibiscus sabdariffa; 0.01 μM,76.5
same,Root Growth (mm) 9th Day,Hibiscus sabdariffa; 0.01 μM,16.6 mm
same,Shoot growth 9th Day,Hibiscus sabdariffa; 0.01 μM,76.5
same,Seed Ger.,Hibiscus sabdariffa; 0.1 μM,2
same,Root Growth (mm) 3rd Day,Hibiscus sabdariffa; 0.1 μM,15.3 mm
same,Shoot growth 3rd Day,Hibiscus sabdariffa; 0.1 μM,46.8
same,Root Growth (mm) 6th Day,Hibiscus sabdariffa; 0.1 μM,29.3 mm
same,Shoot growth 6th Day,Hibiscus sabdariffa; 0.1 μM,76.6
same,Root Growth (mm) 9th Day,Hibiscus sabdariffa; 0.1 μM,32.0 mm
same,Shoot growth 9th Day,Hibiscus sabdariffa; 0.1 μM,81.6
